The record followed here is PubChem BioAssay (NCI).

SMILES strings stand for the structures.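 These data come from cells grown in 96-well plates and exposed to compound for 48 hours at five concentrations. The concentration for 50% growth inhibition is given as GI50. TGI: concentration producing complete growth inhibition.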

Some test systems named below: CAKI-1 renal; HOP-62 NSCLC; HS 578T breast; M14 melanoma; MCF7 breast; MOLT-4 leukemia; NCI-H460 lung; SK-MEL-2 melanoma; SN12C renal; TK-10 renal.
Experiment in all cases: NCI-60 cell line screen, 48 h

As for `Cc1[nH]n(-c2nc(-c3ccccc3)cc(=O)[nH]2)c(=O)c1CCO`, the TGI with CAKI-1 renal, in the experiment on HOP-62 NSCLC, in the experiment with HS 578T breast, in the experiment on M14 melanoma, with MCF7 breast and with MOLT-4 leukemia was greater than 100 µM in each case. Further, the TGI in the experiment with NCI-H460 lung, with SK-MEL-2 melanoma, in the experiment with SN12C renal and with TK-10 renal was greater than 100 µM each time.

On to `CC(C)(C)OC(=O)NC(CSCc1ccc(C(=O)c2ccccc2)cc1)C(=O)N1CCN(CCCCN2c3ccccc3Sc3cc(N=[N+]=[N-])ccc32)CC1` (centres undefined), for which the TGI in the experiment with CAKI-1 renal, in the experiment on HOP-62 NSCLC, in the experiment on HS 578T breast, with M14 melanoma, in the experiment on MCF7 breast and in the experiment with MOLT-4 leukemia was greater than 100 µM in each case. For the same compound, the TGI in the experiment on NCI-H460 lung, with SK-MEL-2 melanoma, in the experiment with SN12C renal and in the experiment on TK-10 renal was greater than 100 µM throughout.

`ClCCCN1CCN(CCCl)CC1`: the TGI in the experiment with CAKI-1 renal was determined as 358 µM; in the experiment on HOP-62 NSCLC, 168 µM; with HS 578T breast it was 885 µM; in the experiment with M14 melanoma, 872 µM; in the experiment with MCF7 breast, 736 µM; in the experiment with MOLT-4 leukemia, 110 µM. For the same compound, the TGI in the experiment on NCI-H460 lung was 356 µM; with SK-MEL-2 melanoma, 760 µM; in the experiment on SN12C renal, 626 µM; in the experiment with TK-10 renal it was greater than 903 µM. In addition, the GI50 was 77.2 µM in the experiment with M14 melanoma, 1.39 µM in the experiment with MOLT-4 leukemia, 7.97 µM in the experiment on NCI-H460 lung and 8.8 µM with SN12C renal.

On to `O=C1/C(=C/c2cccc([N+](=O)[O-])c2)N=C(c2ccccc2)N1c1nc2ccc(Sc3ccccc3)cc2[nH]1`, for which the TGI with CAKI-1 renal, with HOP-62 NSCLC, in the experiment with HS 578T breast, with M14 melanoma, in the experiment on MCF7 breast and with MOLT-4 leukemia was greater than 100 µM in each case. In addition, the TGI in the experiment with NCI-H460 lung, in the experiment with SK-MEL-2 melanoma, with SN12C renal and in the experiment with TK-10 renal was greater than 100 µM throughout.

Regarding `N=c1oc2cc(O)ccc2cc1C(=O)Nc1ccccn1`, the TGI in the experiment with CAKI-1 renal, with HOP-62 NSCLC, in the experiment on HS 578T breast, in the experiment with M14 melanoma, in the experiment with MCF7 breast and in the experiment with MOLT-4 leukemia was greater than 100 µM in each case. Moreover, the TGI with NCI-H460 lung is greater than 100 µM; in the experiment with SK-MEL-2 melanoma, 97.2 µM; in the experiment with SN12C renal, greater than 100 µM; in the experiment on TK-10 renal, greater than 100 µM.

Take `N=c1oc2ccc3ccccc3c2cc1-c1nc2ccccc2c(=O)[nH]1`: the TGI in the experiment with CAKI-1 renal is greater than 100 µM; in the experiment with HOP-62 NSCLC, 45.4 µM; with HS 578T breast, 87.6 µM; with M14 melanoma it was greater than 100 µM; in the experiment on MCF7 breast it was 30 µM; in the experiment on MOLT-4 leukemia, greater than 100 µM. The TGI with NCI-H460 lung is greater than 100 µM; in the experiment on SK-MEL-2 melanoma, 31.8 µM; in the experiment on SN12C renal, greater than 100 µM; in the experiment with TK-10 renal, 90.4 µM.

As to `COc1cc2ncnc(NS(=O)(=O)c3cc4ccccc4s3)c2cc1OC`, the TGI in the experiment with CAKI-1 renal, in the experiment on HOP-62 NSCLC, with HS 578T breast, with M14 melanoma, in the experiment on MCF7 breast and in the experiment on MOLT-4 leukemia was greater than 100 µM throughout. Also, the TGI with NCI-H460 lung, in the experiment on SK-MEL-2 melanoma, in the experiment with SN12C renal and in the experiment on TK-10 renal was greater than 100 µM each time.

In the case of `CCN(CC)Cc1cc(N=Nc2c(O)ccc3c(N=Nc4ccc(O)c(CN(CC)CC)c4)c(O)ccc23)ccc1O`, the TGI with CAKI-1 renal is 8.25 µM; in the experiment on HOP-62 NSCLC, 15.2 µM; with HS 578T breast, greater than 38.7 µM; with M14 melanoma it was greater than 38.5 µM; with MCF7 breast, 13 µM; in the experiment with MOLT-4 leukemia, 12.1 µM. Also, the TGI is 7.54 µM in the experiment on NCI-H460 lung, greater than 51.6 µM in the experiment with SK-MEL-2 melanoma, 17.6 µM with SN12C renal and 18.8 µM in the experiment with TK-10 renal.

For the compound `CCC1(O)C(=O)OCc2c1cc1n(c2=O)Cc2cc3cc4c(cc3nc2-1)OCO4` (centres undefined), the TGI in the experiment on CAKI-1 renal was 0.046 µM; in the experiment on HOP-62 NSCLC, less than 0.0198 µM; in the experiment on HS 578T breast, greater than 100 µM; with M14 melanoma it was 0.0632 µM; in the experiment with MCF7 breast it was greater than 12.8 µM; in the experiment on MOLT-4 leukemia, 0.178 µM. Also, the TGI with NCI-H460 lung came out at 0.0156 µM; with SK-MEL-2 melanoma, 2.01 µM; with SN12C renal, 4.1 µM; in the experiment on TK-10 renal, 37.3 µM.

`CN1C/C(=C\c2cccs2)C2=NN(c3ccccc3)C(c3cccs3)C2C1` (centres undefined): the TGI with CAKI-1 renal is greater than 100 µM; in the experiment with HOP-62 NSCLC it was greater than 100 µM; in the experiment with HS 578T breast, greater than 100 µM; in the experiment on M14 melanoma it was greater than 68.3 µM; in the experiment on MCF7 breast it was greater than 100 µM; in the experiment on MOLT-4 leukemia, greater than 100 µM. Besides, the TGI with NCI-H460 lung, in the experiment with SK-MEL-2 melanoma, with SN12C renal and in the experiment with TK-10 renal was greater than 100 µM in each case.

With `CN(C)N1C(=O)C(=O)N(c2cccc3ccccc23)C1=O`, the TGI with CAKI-1 renal, with HOP-62 NSCLC, in the experiment on HS 578T breast, in the experiment on M14 melanoma, in the experiment with MCF7 breast and in the experiment with MOLT-4 leukemia was greater than 10 µM in each case. The TGI in the experiment with NCI-H460 lung, with SK-MEL-2 melanoma, in the experiment on SN12C renal and with TK-10 renal was greater than 10 µM each time.

For the compound `O=C(COc1cc(=O)oc2ccccc12)c1ccccc1`, the TGI in the experiment on CAKI-1 renal was 32.5 µM; in the experiment on HOP-62 NSCLC it was greater than 100 µM; in the experiment on HS 578T breast it was 73.7 µM; with M14 melanoma it was greater than 100 µM; in the experiment on MCF7 breast, greater than 100 µM; in the experiment on MOLT-4 leukemia, greater than 100 µM. The TGI in the experiment with NCI-H460 lung, in the experiment with SK-MEL-2 melanoma, with SN12C renal and in the experiment on TK-10 renal was greater than 100 µM in each case.

As for `Cc1ccc(C(=O)Nc2ccc(S(=O)(=O)O)c3cc(S(=O)(=O)O)cc(S(=O)(=O)O)c23)cc1NC(=O)c1cccc(NC(=O)Nc2cccc(C(=O)Nc3cc(C(=O)Nc4ccc(S(=O)(=O)O)c5cc(S(=O)(=O)O)cc(S(=O)(=O)O)c45)ccc3C)c2)c1`, the TGI in the experiment on CAKI-1 renal, in the experiment with HOP-62 NSCLC, in the experiment on HS 578T breast, with M14 melanoma, with MCF7 breast and in the experiment with MOLT-4 leukemia was greater than 100 µM throughout. Also, the TGI in the experiment on NCI-H460 lung was greater than 100 µM; with SK-MEL-2 melanoma, greater than 100 µM; with SN12C renal it was greater than 100 µM; in the experiment on TK-10 renal, greater than 89.7 µM.

With `Cc1cc2ncn(CC(=O)O)c2cc1C`, the TGI in the experiment with CAKI-1 renal, in the experiment with HOP-62 NSCLC, in the experiment on HS 578T breast, in the experiment on M14 melanoma, in the experiment with MCF7 breast and with MOLT-4 leukemia was greater than 100 µM each time. The TGI in the experiment with NCI-H460 lung, in the experiment on SK-MEL-2 melanoma, with SN12C renal and with TK-10 renal was greater than 100 µM each time.

In the case of `O=C(CCCc1cccc2[nH]c3c(c12)CN(Cc1ccccc1)CC3)c1ccc(F)cc1`, the TGI was greater than 100 µM in the experiment on CAKI-1 renal; greater than 52.6 µM in the experiment with HOP-62 NSCLC; greater than 100 µM in the experiment on HS 578T breast; greater than 100 µM in the experiment on M14 melanoma; greater than 100 µM with MCF7 breast; greater than 100 µM in the experiment on MOLT-4 leukemia. The TGI in the experiment with NCI-H460 lung, with SK-MEL-2 melanoma, with SN12C renal and with TK-10 renal was greater than 100 µM in each case.

As to `Cc1cc(=O)[nH]c2cc(NC(=O)C(C)NC(=O)C(C)NC(=O)C(C)NC(=O)OC(C)(C)C)ccc12` (centres undefined), the TGI in the experiment on CAKI-1 renal, in the experiment with HOP-62 NSCLC, in the experiment with HS 578T breast, with M14 melanoma, in the experiment with MCF7 breast and with MOLT-4 leukemia was greater than 15 µM each time. The TGI in the experiment on NCI-H460 lung, in the experiment on SK-MEL-2 melanoma, with SN12C renal and in the experiment with TK-10 renal was greater than 15 µM in each case.

With `COP(=O)(OC)C(N)Cc1c[nH]c2ccccc12` (centres undefined), the TGI in the experiment with CAKI-1 renal, in the experiment on HOP-62 NSCLC, in the experiment with HS 578T breast, in the experiment with M14 melanoma, in the experiment with MCF7 breast and in the experiment on MOLT-4 leukemia was greater than 100 µM in each case. For the same compound, the TGI in the experiment with NCI-H460 lung, in the experiment with SK-MEL-2 melanoma, in the experiment with SN12C renal and with TK-10 renal was greater than 100 µM each time.

Turning to `COc1ccc(-c2c(C#N)c(N)[nH]c(=S)c2C#N)cc1`, the TGI in the experiment with CAKI-1 renal was greater than 100 µM; in the experiment with HOP-62 NSCLC it was greater than 100 µM; in the experiment on HS 578T breast it was 66.6 µM; in the experiment with M14 melanoma, greater than 100 µM; in the experiment on MCF7 breast, greater than 100 µM; with MOLT-4 leukemia, greater than 100 µM. Moreover, the TGI is greater than 100 µM in the experiment with NCI-H460 lung, greater than 100 µM in the experiment with SK-MEL-2 melanoma, 84.3 µM in the experiment with SN12C renal and greater than 100 µM with TK-10 renal.

On to `N=C1OC(CN2CCN(c3ccccc3)CC2)CN1C(=O)Nc1ccccc1` (centres undefined), for which the TGI with CAKI-1 renal, in the experiment with HOP-62 NSCLC, in the experiment with HS 578T breast, in the experiment on M14 melanoma, with MCF7 breast and in the experiment with MOLT-4 leukemia was greater than 100 µM in each case. In addition, the TGI in the experiment on NCI-H460 lung, with SK-MEL-2 melanoma, in the experiment on SN12C renal and in the experiment on TK-10 renal was greater than 100 µM each time.
